Test results from US20240398817A1, “CARDIO- AND RENOSAFE ANTIDIABETIC THERAPY” (priority 2018, published 2024).

Tested on: patients with type 2 diabetes at high vascular risk
Experiment: Cardiovascular and Renal Outcomes Trial: linagliptin 5 mg once daily vs placebo on top of standard of care
Assay type: in vivo
Conditions: for Hazard ratio for hospitalised heart failure: vs placebo
Method: The effect of linagliptin on cardiovascular risk in adult patients with type 2 diabetes mellitus and with increased CV risk evidenced by a history of established macrovascular or renal disease (e.g. as defined herein) was evaluated in a multi-center, multi-national, randomized, double-blind parallel group trial. The trial compared the risk of experiencing a major adverse cardiovascular event (MACE) between linagliptin and placebo when these were added to and used concomitantly with standard of care treatments for diabetes (HbA1c), cardiovascular risk factors and renal disease.
The primary endpoint in this trial was the time to first occurrence of three point (3P) MACE. A major adverse cardiac event was defined as a cardiovascular death or a nonfatal myocardial infarction (MI) or a nonfatal stroke. The statistical analysis plan tested for non-inferiority for the occurrence of (3P) MACE. […] The secondary endpoint was a renal composite, defined as renal death or sustained end stage renal disease or sustained decrease of 40% or more in eGFR.
Type 2 diabetes patient with insufficient glycemic control (naïve or pre-treated with any antidiabetic background medication, excluding treatment with GLP-1 receptor agonists, DPP-4inhibitors or SGLT-2 inhibitors if ≥consecutive 7 days, e.g. having HbA1c 6.5-10%), and high risk of cardiovascular events, e.g. defined by: • albuminuria (micro or macro) and previous macrovascular disease: e.g. defined according to Condition I as indicated below; • and/or • impaired renal function: e.g. as defined according to Condition II as indicated below;
Background and aims: People with type 2 diabetes (T2D) are at increased risk for hospitalization for heart failure (hHF), particularly in the setting of concomitant cardiovascular (CV) and/or kidney disease. […] Here we present analyses of HF outcomes with the DPP-4 inhibitor linagliptin (LINA) vs. placebo (PBO) from a Cardiovascular and Renal Outcomes Trial assessing cardiovascular safety and renal microvascular outcome in patients with type 2 diabetes at high vascular risk, a large CV outcomes trial that enrolled participants with T2D at high risk for hHF due to concomitant CV and/or chronic kidney disease. Materials and methods: People with T2D and concomitant CV and/or kidney disease were randomized to receive LINA 5 mg, or PBO once daily (1:1), on top of standard of care. All hHF, CV outcomes, and deaths were centrally adjudicated, with individual and composite HF-related outcomes analyses comparing LINA vs. placebo. Investigator-reported HF-related adverse events, whether or not confirmed by adjudication, were also analyzed. A Cox proportional hazards model adjusting for region and history of HF was used for analyses of first events. Recurrent hHF events were analyzed using a negative binomial model.
Methods: The present Cardiovascular and Renal Outcomes Trial randomized people with T2D and i) concomitant CV disease with UACR >30 mg/g or ii) prevalent CKD (i.e. GFR <45 ml/min/1.73m2 and/or UACR >200 mg/g) to receive the DPP-4 inhibitor linagliptin (5 mg) or placebo once daily in a double-blind fashion. The primary CV endpoint was 3P-MACE, with a key secondary kidney endpoint (adjudicated ESKD, renal death, or sustained ≥40% decrease in eGFR from baseline) and other renal outcomes (including albuminuria and eGFR slope) also assessed. Subgroups were assessed by baseline kidney function (eGFR ≥/<45 ml/min/1.73m2and eGFR ≥/<30, 45 or 60 ml/min/1.73m2).
Adults with type 2 diabetes, HbA1c 6.5-10.0% inclusive, and high CV risk were eligible for inclusion. […] Macrovascular disease eligibility criteria was based on documented and confirmed history of myocardial infarction, coronary artery disease, stroke, carotid artery disease, or peripheral artery disease. Participants with end-stage kidney disease (ESKD), defined as eGFR <15 or requiring maintenance dialysis, were excluded.

[1] = Duration of type 2 diabetes ≥10 years
[2] = Established macrovascular disease and albuminuria No
[3] = Established macrovascular disease and albuminuria Yes
[4] = Estimated glomerular filtration rate <30 mL/min/1.73 m^2
[5] = Estimated glomerular filtration rate ≥30 to <45 mL/min/1.73 m^2
[6] = Estimated glomerular filtration rate ≥45 to <60 mL/min/1.73 m^2
[7] = Estimated glomerular filtration rate ≥60 mL/min/1.73 m^2

CC#CCn1c(N2CCC[C@@H](N)C2)nc2c1c(=O)n(Cc1nc(C)c3ccccc3n1)c(=O)n2C [Linagliptin, 1-[(4-methyl-quinazolin-2-yl)methyl]-3-methyl-7-(2-butyn-1-yl)-8-(3-(R)-amino-piperidin-1-yl)-xanthine]
3-point MACE: patients with event/patients analyzed [1]: 316/2277 | Key secondary kidney outcome: hazard ratio vs placebo [1]: 0.97 | Key secondary kidney outcome: patients with event/patients analyzed [1]: 230/2277 | Patients with event/patients analysed, hospitalised heart failure [1]: 149/2277 | Hazard ratio for hospitalised heart failure [1]: 0.89 | 3-point MACE: hazard ratio vs placebo [2]: 1.13 | 3-point MACE: patients with event/patients analyzed [2]: 198/1486 | Key secondary kidney outcome: hazard ratio vs placebo [2]: 1.03 | Key secondary kidney outcome: patients with event/patients analyzed [2]: 215/1486 | Patients with event/patients analysed, hospitalised heart failure [2]: 96/1486 | Hazard ratio for hospitalised heart failure [2]: 0.87 | 3-point MACE: hazard ratio vs placebo [3]: 0.94 | 3-point MACE: patients with event/patients analyzed [3]: 236/2008 | Key secondary kidney outcome: hazard ratio vs placebo [3]: 1.11 | Key secondary kidney outcome: patients with event/patients analyzed [3]: 112/2008 | Patients with event/patients analysed, hospitalised heart failure [3]: 113/2008 | Hazard ratio for hospitalised heart failure [3]: 0.93 | 3-point MACE: hazard ratio vs placebo (Established renal disease No): 0.98 | 3-point MACE: patients with event/patients analyzed (Established renal disease No): 120/1385 | Key secondary kidney outcome: hazard ratio vs placebo (Established renal disease No): 1.20 | Key secondary kidney outcome: patients with event/patients analyzed (Established renal disease No): 38/1385 | Patients with event/patients analysed, hospitalised heart failure (Established renal disease No): 47/1385 | Hazard ratio for hospitalised heart failure (Established renal disease No): 1.19 | 3-point MACE: hazard ratio vs placebo (Established renal disease Yes): 1.04 | 3-point MACE: patients with event/patients analyzed (Established renal disease Yes): 314/2109 | Key secondary kidney outcome: hazard ratio vs placebo (Established renal disease Yes): 1.00 | Key secondary kidney outcome: patients with event/patients analyzed (Established renal disease Yes): 289/2109 | Patients with event/patients analysed, hospitalised heart failure (Established renal disease Yes): 162/2109 | Hazard ratio for hospitalised heart failure (Established renal disease Yes): 0.84 | Patients with event/patients analysed, hospitalised heart failure [4]: 59/516 | Hazard ratio for hospitalised heart failure [4]: 0.94 | Patients with event/patients analysed, hospitalised heart failure [5]: 76/994 | Hazard ratio for hospitalised heart failure [5]: 0.85 | Patients with event/patients analysed, hospitalised heart failure [6]: 38/690 | Hazard ratio for hospitalised heart failure [6]: 1.06 | Patients with event/patients analysed, hospitalised heart failure [7]: 36/1294 | Hazard ratio for hospitalised heart failure [7]: 0.88 | 3-point MACE: hazard ratio vs placebo (Ethnicity Hispanic/Latino): 1.13 | 3-point MACE: patients with event/patients analyzed (Ethnicity Hispanic/Latino): 143/1227 | Key secondary kidney outcome: hazard ratio vs placebo (Ethnicity Hispanic/Latino): 1.10 | Key secondary kidney outcome: patients with event/patients analyzed (Ethnicity Hispanic/Latino): 156/1227 | Patients with event/patients analysed, hospitalised heart failure (Ethnicity Hispanic/Latino): 58/1227 | Hazard ratio for hospitalised heart failure (Ethnicity Hispanic/Latino): 0.96 | 3-point MACE: hazard ratio vs placebo (Ethnicity Not Hispanic/Latino): 0.97 | 3-point MACE: patients with event/patients analyzed (Ethnicity Not Hispanic/Latino): 291/2267 | Key secondary kidney outcome: hazard ratio vs placebo (Ethnicity Not Hispanic/Latino): 0.99 | Key secondary kidney outcome: patients with event/patients analyzed (Ethnicity Not Hispanic/Latino): 171/2267 | Patients with event/patients analysed, hospitalised heart failure (Ethnicity Not Hispanic/Latino): 151/2267 | Hazard ratio for hospitalised heart failure (Ethnicity Not Hispanic/Latino): 0.87 | 3-point MACE: hazard ratio vs placebo (Gender Female): 0.96 | 3-point MACE: patients with event/patients analyzed (Gender Female): 152/1346 | Key secondary kidney outcome: hazard ratio vs placebo (Gender Female): 0.92 | Key secondary kidney outcome: patients with event/patients analyzed (Gender Female): 117/1346 | Patients with event/patients analysed, hospitalised heart failure (Gender Female): 74/1346 | Hazard ratio for hospitalised heart failure (Gender Female): 0.97 | 3-point MACE: hazard ratio vs placebo (Gender Male): 1.06 | 3-point MACE: patients with event/patients analyzed (Gender Male): 282/2148 | Key secondary kidney outcome: hazard ratio vs placebo (Gender Male): 1.12 | Key secondary kidney outcome: patients with event/patients analyzed (Gender Male): 210/2148 | Patients with event/patients analysed, hospitalised heart failure (Gender Male): 135/2148 | Hazard ratio for hospitalised heart failure (Gender Male): 0.87 | Patients with event/patients analysed, hospitalised heart failure (Glycated haemoglobin <8.0%): 107/1915 | Hazard ratio for hospitalised heart failure (Glycated haemoglobin <8.0%): 0.78 | Patients with event/patients analysed, hospitalised heart failure (Glycated haemoglobin ≥8.0%): 102/1579 | Hazard ratio for hospitalised heart failure (Glycated haemoglobin ≥8.0%): 1.05 | 3-point MACE: hazard ratio vs placebo (Glycated hemoglobin <8.0%): 0.90 | 3-point MACE: patients with event/patients analyzed (Glycated hemoglobin <8.0%): 229/1915 | Key secondary kidney outcome: hazard ratio vs placebo (Glycated hemoglobin <8.0%): 1.13 | Key secondary kidney outcome: patients with event/patients analyzed (Glycated hemoglobin <8.0%): 186/1915 | 3-point MACE: hazard ratio vs placebo (Glycated hemoglobin ≥8.0%): 1.20 | 3-point MACE: patients with event/patients analyzed (Glycated hemoglobin ≥8.0%): 205/1579 | Key secondary kidney outcome: hazard ratio vs placebo (Glycated hemoglobin ≥8.0%): 0.94 | Key secondary kidney outcome: patients with event/patients analyzed (Glycated hemoglobin ≥8.0%): 141/1579 | 3-point MACE: hazard ratio vs placebo (History of heart failure No): 1.02 | 3-point MACE: patients with event/patients analyzed (History of heart failure No): 275/2542 | Key secondary kidney outcome: hazard ratio vs placebo (History of heart failure No): 1.07 | Key secondary kidney outcome: patients with event/patients analyzed (History of heart failure No): 252/2542 | Patients with event/patients analysed, hospitalised heart failure (History of heart failure No): 96/2542 | Hazard ratio for hospitalised heart failure (History of heart failure No): 0.92 | 3-point MACE: hazard ratio vs placebo (History of heart failure Yes): 1.01 | 3-point MACE: patients with event/patients analyzed (History of heart failure Yes): 159/952 | Key secondary kidney outcome: hazard ratio vs placebo (History of heart failure Yes): 0.95 | Key secondary kidney outcome: patients with event/patients analyzed (History of heart failure Yes): 75/952 | Patients with event/patients analysed, hospitalised heart failure (History of heart failure Yes): 113/952
